Consider 4 compounds from patent US20090171621A1, “MEASURING THE DISTANCE BETWEEN DEVICES” (KONINKLIJKE PHILIPS ELECTRONICS, N.V., priority 2004, published 2009).

Series [1] concerns egg-laying chickens. The note with it: previous art, cited from earlier work.
For series [2], the system named is ISA brown hens. Kind of series: Egg laying performance of hens fed supplemented diet (egg weight, egg production). The note with it: for Egg weight / Egg production: 6 weeks; for Egg production: percent hen day production. Format: in vivo. The procedure: (§1) Healthy ISA brown hens, 45-week old, were assigned randomly to each dietary group (control group, 8 birds; experimental group, 6 birds each). Each bird was placed in an individual cage in an environmentally controlled room (25° C., 50% relative humidity, 16L:8D). The hens were allowed for 2 weeks in which to adapt to the feed with no additives and the housing. Control birds were fed a commercial diet based on corn and soybean meal (Table 1), while birds in experimental groups were fed diets supplemented with 0.003 or 0.03% of compactin (Sigma Aldrich Korea) for 6 weeks. Feed and water were provided ad libitum throughout the experiment. Feed consumption, egg production and egg weight were recorded daily. Egg production was expressed as percent hen day production; (100×number of eggs laid)/(number of hens×days).
The effects of 0.003% or 0.03% compactin on the laying performance of 45-week old ISA brown hens were investigated (Table 2). Egg weight was maintained at more than 60 grams after 6 weeks of oral administrations of compactin at both doses. […] Maintenance of laying performance with compactin feeding is of contrast to the previous art in which atorvastatin reduced egg production down to 70% after feeding for 5-week.
Egg production and yolk cholesterol analysis was performed with 0.003 and 0.03% pravastatin administered group with the same procedure as described in Example 1 above. Hen performance was investigated by measuring egg weight and egg production as in Table 4. Pravastatin group had maintained above 80% of egg production rate after 6-week administration, same as control.
Egg production and yolk cholesterol analysis was performed with the same procedure as described in Example 1 above except 0.5 and 1% of Streptomyces cell precipitates and bioconversion reaction broth were administered instead of compactin. Hen performance was investigated by measuring egg weight and egg production as in Table 6.

Series [3] has as its system ISA brown hens. The series is described as follows: Egg cholesterol analysis (yolk weight, yolk cholesterol by gas chromatography) of hens fed supplemented diet. In kind it is in vivo. The note with it: for Cholesterol content / Cholesterol content change / Cholesterol concentration: 6 weeks; for Egg york weight: 6 weeks (Table 5); for Cholesterol content change: compared to control; for Cholesterol concentration: per gram of yolk; for Total yolk/egg cholesterol content, percentage change (reduction) compared to control: 0.03% in feed. How it is done: as §1
For egg cholesterol analysis, eggs from each bird were collected and egg yolk was separated, weighed, and sampled for analysis. Lipids from eggs were extracted by the method of Folch et al. (1957). Briefly, one gram of sample was saponified with 3 mL of 33% KOH and incubated with 30 mL of 95% methanol in a 65° C. water bath for 90 min. After saponification, 10 mL hexane and 3 mL water were added, followed by vigorous shaking for 10 min. 5α-cholestan (Sigma C-8300) was used as an internal standard. Cholesterol content was determined by a gas chromatography (Shimadzu, Japan) using column VB-1 (30 m×0.25 mm×0.25 μm, VICI Inc.) with a split ratio of 100:1 and nitrogen as carrier gas for a column flow rate of 0.54 mL/min. Injector, column, and detector temperatures were 275° C., 290° C., and 340° C., respectively.
Egg production and yolk cholesterol analysis was performed with 0.003 and 0.03% pravastatin administered group with the same procedure as described in Example 1 above. Hen performance was investigated by measuring egg weight and egg production as in Table 4. […]

The conditions of series [4]: clinical trials / prescription drug development; cited from earlier work.
Series [5] concerns egg-laying chickens. Conditions: previous art, cited from earlier work. This is another data set of the same source.

As for `CC[C@H](C)C(=O)O[C@H]1C[C@@H](C)C=C2C=C[C@H](C)[C@H](CC[C@@H]3C[C@@H](O)CC(=O)O3)[C@H]21` [lovastatin], in the series on egg-laying chickens [1] (at its high dose), the “Reduction of egg cholesterol level” value was 3-6%.

For the compound pravastatin, in the series on ISA brown hens [2] (0.003 weight % added to feed), the Egg weight turned out to be 62.5 ± 0.3 g and the Egg production was determined as 84%. In the series on ISA brown hens [2] (0.03 weight % added to feed), this compound displayed an Egg weight of 58.8 ± 0.7 g and an Egg production of 82%. Further, the “Egg production rate maintained” value in the series with ISA brown hens [2] (after 6-week administration, 0.003 and 0.03%) was “above 80%”. Besides, in the series on ISA brown hens [3] (0.003 weight % added to feed), the Cholesterol content stood at 207 mg/egg, the Egg york weight was determined as 16.5 ± 0.4 g, the Cholesterol content change is listed as −6% and the Cholesterol concentration turned out to be 12.5 ± 0.5 mg/g. For the same compound, the “Total yolk/egg cholesterol content, percentage change (reduction) compared to control” value with ISA brown hens [3] (given without sign) is reported as 24%. Moreover, in the series with ISA brown hens [3] (0.03 weight % added to feed), the Cholesterol content was found to be 167 mg/egg, the Egg york weight was 16.1 ± 0.4 g, the Cholesterol content change is listed as −24% and the Cholesterol concentration is given as 10.4 ± 0.5 mg/g. Also, the Toxicity entry in series [4] is listed as “not toxic”.

`CC[C@H](C)C(=O)O[C@H]1CCC=C2C=C[C@H](C)[C@H](CC[C@@H]3C[C@@H](O)CC(=O)O3)[C@H]21` [Compactin, compactin]: the “Egg production compared to the control group” value with ISA brown hens [2] (in vivo) is reported as “did not cause any difference in egg production”. Besides, the “Total yolk cholesterol content, percentage change (reduction) compared to control” value with ISA brown hens [3] (0.003% in feed, given without sign) turned out to be 16%. Further, in the series with ISA brown hens [3] (0.003 weight % added to feed), the Cholesterol content turned out to be 185 mg/egg, the Cholesterol content change was −16% and the Cholesterol concentration came out at 11.2 ± 0.3 mg/g. Besides, in the series with ISA brown hens [3] (given without sign), the “Total yolk/egg cholesterol content, percentage change (reduction) compared to control” value is recorded as 29%. For the same compound, in the series with ISA brown hens [3] (0.03 weight % added to feed), the Cholesterol content was 156 mg/egg, the Cholesterol content change was −29% and the Cholesterol concentration is reported as 10.5 ± 0.2 mg/g. Moreover, the Toxicity entry in series [4] is reported as “serious toxicity”.

`CC(C)c1c(C(=O)Nc2ccccc2)c(-c2ccccc2)c(-c2ccc(F)cc2)n1CC[C@@H](O)C[C@@H](O)CC(=O)O` [atorvastatin]: the “Cholesterol-lowering effect in eggs” value with egg-laying chickens [1] (0.03-0.06% fed for 5 weeks) is “satisfactory”. The “Egg production reduced down to” value in the series on egg-laying chickens [5] (after feeding for 5-week) is given as 70%. For the same compound, in the series on egg-laying chickens [5], the “Decrease of egg production rate compared to control” value is “more than 15%” and the “Effect of oral administration on egg production” value is given as “decrease egg production”.
